In a melting point compilation (Tetko et al.; mined from patent text by program, amines drawn as free bases though some values may be those of a salt):

Point of comparison: O=S(=O)(c1ccc(Cl)c(CBr)c1Cl)N1CC[C@H](O)C1, melting point 120 °C. Against it:
- COc1cccc(N(C)C(=O)Oc2ccc(C(C)C)cc2)n1 — lower, 64 to 65 °C
- COc1ccc(CCC(=O)c2ccc(O)cc2O)c(OC)c1C — higher, 171 °C
- Cc1c(C(=O)O)cccc1-n1c(C)ccc1C — higher, 142 to 143 °C
- O=[N+]([O-])c1cc(C=Cc2ccncc2)cc(O)c1O — higher, > 350 °C
- Cc1cc(C)c2occ(-c3ccccc3)c2c1 — higher, 131 to 132 °C
- CC(C)(C)OC(=O)/C=C1/CCCCC1n1nc(-c2c(-c3ccccc3)nn3ccccc23)ccc1=O (stereo unspecified) — lower, 110 to 116 °C
- CC(=O)c1cccc(-c2cc3c4cc(C)ccc4[nH]c3n(C)c2=O)c1 — higher, 258 to 260 °C
- CC(C)(C)C(=O)Nc1c(F)cc(F)cc1Oc1ccc(C2(C#N)CCCC2)cc1 — lower, 103 to 105 °C
- CC(C)C[C@H](NC(=O)OCc1ccccc1)C(=O)N[C@@H](Cc1ccccc1)C(=O)CS(C)(=O)=O — higher, 142 to 144 °C
- CC1=NN(c2cc(-c3ccnc(Nc4cccc(Cl)c4)n3)ccn2)C(=O)C1 — higher, 149 to 150 °C
- C=Cc1ccc(COc2ccc(CO)cc2)cc1 — lower, 110 to 112 °C
- Cc1cc2c(c(C)c1O)C(C)(C)CN2C(=O)C(C)(C)C — higher, 143 to 144 °C
- CCOc1ccc(-c2nc(-c3cccc(C#N)n3)cs2)cc1OCC — higher, 134 to 136 °C
- NC1=Nc2ccc(Cl)cc2C2CCCC12F (stereo unspecified) — higher, 223 °C
- COC(=O)C(CCO)NS(=O)(=O)c1ccc(Cl)cc1 (racemic) — lower, 91 to 92 °C
- Brc1ncnn1C(c1ccccc1)(c1ccccc1)c1ccccc1 — higher, 239 to 241 °C
- CC(C)=CCN1c2ccccc2NC(=O)C1(C)C — higher, 146 to 147 °C
- CN(C)C=Nc1c(Cl)cc(N=Cc2ccc(N(C)C)c(Br)c2)cc1Cl — higher, 140 to 141 °C
- O=C(O)CCC(Oc1cccc(OCc2ccccc2)c1)c1ccccc1 (racemic) — lower, 100 to 104 °C
- COc1ccc(C(=O)OC2C=C(C)C(=O)CC(C)(C)C2OC(C)=O)cc1 (stereo unspecified) — lower, 93 to 94 °C
- CC1(C)NCCc2ccccc2C1c1ccccc1 (stereo unspecified) — lower, 99 to 100 °C
- COC(CC#N)=NC#N — lower, 45.5 °C
- CCOC(=O)Cc1sc(SCc2ccc(C(=O)OC)s2)nc1C — lower, 49 to 51 °C
- CS(=O)(=O)Nc1cc(OCCC(=O)O)ccc1Oc1ccccc1 — higher, 145 to 149 °C
- CCOC(=O)C(Cl)=Cc1cc(-n2ncc(C(F)(F)F)c(C)c2=O)ccc1Cl — higher, 164 to 167 °C
- O=c1[nH]nc2c3cc(F)ccc3[nH]c(=O)n12 — higher, > 350 °C
- O=c1oc(CO)nn1Cc1ccccc1 — lower, 54 °C
- Cc1cc(-n2ccnc2)ccc1N — higher, 131 to 134 °C
- Cc1ccc(Cn2cnc3c(-c4ccco4)ncnc32)cc1 — higher, 166 to 167 °C
- CCCN1CCCC(c2ccc(OC)c3c2CC(=O)N3)C1 (stereo unspecified) — the same, 120 °C
- O=C(Nc1ccc(Cl)cc1)C(CS)Cc1ccccc1 (stereo unspecified) — higher, 142 °C
- O=C(c1ccc2c(c1)OC(F)(F)C(=O)N2)N1CCOCC1 — higher, 214 to 217 °C
- CCCOc1ccccc1-c1nc2nc(N)ncc2c(=O)[nH]1 — higher, 261 to 262 °C
- COc1cc2c(=O)cc(C(=O)O)n(C)c2ccc1=O — higher, > 250 °C
- CCOC(=O)Cn1c2c([nH]c(=O)c1=O)CCC1=C2C=C(n2ccc(C=O)c2)CC1 — higher, > 250 °C
- Cc1cc(N)c(C)c(C(=O)O)c1 — higher, 146 °C
- Cc1ccc(COn2c(C)c(C(C)C(=O)O)c3cc4c(cc32)OCO4)cc1 (stereo unspecified) — higher, 172 to 175 °C
- CCN(Cc1ccccc1)C(=O)Cc1c(-c2ccc(Cl)c(Cl)c2)nc2cc(C)ccn12 — higher, 180 to 182 °C
- COC(=O)C=Cc1cc(Oc2c(Cl)cc(C(F)(F)F)cc2Cl)ccc1[N+](=O)[O-] — lower, 90 °C
- CS(=O)(=O)c1ccc(-c2oc3ccccc3c(=O)c2-c2cccc(F)c2)cc1 — higher, 225 °C
- CCCC(CCCCNC(=O)c1cc2ccc(C3OC(CO)C(O)C(O)C3O)cc2oc1=O)C(=O)O (stereo unspecified) — higher, 162 °C
- COc1cccc(CC(=O)O)c1OCCCc1cn(-c2ccc(C(F)(F)F)cc2)nc1C(C)C — lower, 114 to 115 °C
- CCCCc1c(C(=O)O)[nH]c2c(Br)cccc2c1=O — higher, 220 °C
- CCCc1cnc2c(c1)C(=O)N1C2=NC(=O)C1(C)C(C)C (stereo unspecified) — lower, 116 °C
- Cc1sc(C=O)cc1C(=O)O — higher, 173 °C
- COC(=O)Cc1ccc(OCCNC(=O)C2Cc3ccccc3N2S(=O)(=O)c2ccc(-c3cc(C)ccc3Cl)cc2)cc1 (stereo unspecified) — lower, 50 to 53 °C
- CC(c1ccc(F)c(F)c1)n1ncc(-c2ccc(S(N)(=O)=O)cc2)c(-c2ccc(F)cc2)c1=O (stereo unspecified) — higher, 214 to 215 °C
- CCCCCc1c(C(=O)OCC)oc2cc(OC)ccc12 — lower, 38 to 41 °C
- Cc1ccc(NC(=O)c2cccc(C(F)(F)F)c2)cc1-c1ccc2ncsc2c1 — lower, 94 to 96 °C
- CC(=O)NC(Cc1cccc(C(=O)OC(C)(C)C)c1)C(=O)OCc1ccccc1 (stereo unspecified) — higher, 164 to 166 °C
- Cc1oc(-c2ccccc2)nc1COc1ccc(COc2ccccc2CC(=O)O)cn1 — higher, 123 to 125 °C
- c1ccc2c(c1)SCCc1c-2n(CCN2CCCCC2)c2ccccc12 — lower, 118 °C
- CC1(C)[C@@H]2[C@H]1[C@@H](O)O[C@H]2C(Cl)(Cl)Cl — lower, 100 to 105 °C
- COc1cc(N)c(Cl)cc1C(=O)N[C@H]1CCN(CCO)C[C@H]1OC (relative stereo) — higher, 153 °C
- CC(C)OC(=O)c1cc(-n2c(=O)c3c(n(C)c2=O)CCC3)c(F)cc1Cl — lower, 111 to 113 °C
- CCOC(=O)c1[nH]c2c(c1OCC1CO1)CCCC2 (stereo unspecified) — lower, 102 to 104 °C
- COc1ccc(-c2cn(CCCC#N)c3c(OC)ccc(OC)c3c2=O)cc1 — higher, 126 to 127 °C
- CC(C)Nc1ncc2c(n1)N(C)C(=O)C2 — not separable, 120 to 123 °C
- Nc1ccc2c(c1)C(=O)N(C1CCN(Cc3ccccc3)CC1)C2=O — higher, 216 to 218 °C
- COc1cc(C)cc2nc(S(=O)(=O)Nc3c(Cl)cccc3Cl)nn12 — higher, 269 to 270 °C
